Reference: US6673940B1, “Compositions and methods relating to cyclic compounds that undergo nucleotide base pair-specific interactions with double-stranded nucleic acids” (California Institute of Technology, priority 1999, dated 2004)

How the values were obtained:
[1] = test system: 5′-AGTACT-3′ site on 229 bp restriction fragment of pJT8; assay: Quantitative DNase I footprint titration, 5′-AGTACT-3′ site; type: binding; details: for equilibrium association constant Ka at 5′-AGTACT-3′: 10 mM Tris•HCl, 10 mM KCl, 10 mM MgCl2, 5 mM CaCl2, pH 7.0, 22° C., match site for (3), single base pair mis-match for (4)
Description: (§1) FIGS. 8A and 8B depict the results quantitative DNase I footprint titration experiments with (a) cyclo-(Γ-Im-Py-Py-Py-(R)^H^2^Nγ-Im-Py-Py-Py) (3) and (b) cyclo-(γ-Im-Py-Py-Py(R)^H^2^Nγ-Py-Py-Py-Py) (4) on the 3′-end labeled 229-bp restriction fragment of pJT8. Lane 1, intact DNA control; lane 2, A reaction; lane 3, DNase I standard, lanes 4-13, 5 pM, 10 pM, 20 pM, 50 pM, 100 pM, 1 nM, 2 nM, 5 nM, and 10 nM of the respective polyamide. The 5′-AGTACT-3′ and 5′-AGTATT-3′ match and mis-match sites for each polyamide were analyzed and are shown on the right side of the respective autoradiograms. All reactions contained 20 kcpm of radiolabeled restriction fragment, 10 mM Tris•HCI (pH 7.0), 10 mM KC1, 10 mM MgCl2, and 5 mM CaCl2.
(§2) As controls, the binding affinities and sequence specificities of the Im-Py-Py-Py-β-Dp (1) unlinked 2:1 dimer and a hairpin analog 1m-Py-Py-Py-(R)^H,Nγ-Im-Py-Py-Py-C3-OH (2) were also studied. An EDTA analogue, cyclo-(γ-Im-Py-Py-Py-(R)^EDTA-FE(II)γ-Py-Py-Py-Py-) (4-E•Fe(II)) was constructed to confirm the binding orientation of cyclic polyamide (4) at its 5′-AGTATT-3′ match and 5′-AGTACT-3′ single base pair mismatch site. All polyamides were synthesized by solid phase methods (see Baird, et al., J. Am. Chem. Soc., vol. 118:6141 (1996), and U.S. Ser. No. 08/607,078 for a description of solid phase synthesis methods for non-cyclic polyamides). Polyamide purity and identity was confirmed by H NMR, MALDI-TOF MS, and analytical HPLC. Precise binding site sizes were determined by MPE•Fe(II) footprinting (see Van Dyke, et al., Proc. Natl. Acad. Sci. U.S.A., vol. 79:5470 (1982), and Van Dyke and Dervan, Science, vol. 225:1122 (1984)), and binding orientation and stoichiometry confirmed by affinity cleaving experiments. See Taylor, et al., Tetrahedron, vol.40:457 (1984), and Dervan, P. B., Science, vol. 232:464 (1986). Equilibrium association constants (Ka) of the polyamides for their respective match and mis-match binding sites were determined by quantitative DNase I footprint titration, as described by Brenowitz, et al., Methods Enzymol., vol. 130:132 (1986), Brenowitz, et al., Proc. Natl. Acad. Sci. U.S.A., vol 83:8462 (1986), and Senear, et al., Biochemistry, vol. 25:7344 (1986).
Quantitative DNase I footprint titrations (10 mm Tris•HCI, 10 mM KCl, 10 MM MgCl2 and 5 mM CaCl2 pH 7.0 and 22° C.) were performed to determine the equilibrium association constants (Ka) of Im-Py-Py-Py-β-Dp (1), Im-Py-Py-Py-(R)^H,NγIm-Py-Py-Py-OH (2), cyclo-(γ-Im-Py-Py-Py-(R)^H,Nγ-Im-Py-Py-Py) (3), and cyclo-(γ-Im-Py-Py-Py-(R)^H,Nγ-Py-Py-Py-Py-) (4) for the 6 bp match and mis-match sites. The results for (3) and (4) are depicted in FIG. 8.

[2] = test system: 5′-TGTTA-3′ dsDNA target sequence; details: Cho et al. 1995; cited from earlier work
[3] = test system: 229 base pair DNA restriction fragment from the plasmid pJT8 (5′-AGTATT-3′ and 5′-AGTACT-3′ sites); assay: Affinity cleavage experiments; type: binding; details: 100 nM; 20 mM HEPES pH 7.3, 200 mM NaCl, 1 μM Fe(II), 22° C.
Description: FIGS. 6A and 6B show the results of affinity cleaving experiments using cyclo-(γ-Im-Py-Py-Py-(R)^EDTA-Fe(II)γ-Py-Py-Py-Py) (4-E•Fe(II)) on the (a) 3′- and (b) 5′-^32P-labeled 229 bp restriction fragment of pJT8. The match and single mis-match sites 5′-AGTATT-3′ and 5′-AGTACT-3′ are shown on the right side of the autoradiograms. The lanes of each gel are described as follows lane 1, intact DNA (control); lane 2, A reaction; lanes 3-7, 100 pM, 1 nM, 10 nM, and 100 nM, and 1 μM polyamide, respectively. All lanes contain 15 kcpm of either 3′- or 5′-radiolabeled DNA, 20 mM HEPES buffer (pH 7.3), 200 mM NaCl, 50 μg/ml glycogen, 5 mM DTT, 1 μM Fe(II), pH 7.0, and were run at 22° C.
FIGS. 7A-7C illustrate the synthesis of cyclo-(γ-Im-Py-Py-Py(R)^EDTA•Fe(II)γPy-Py-Py-Py) (4-E•Fe(II)) from cyclo-(γ-Im-Py-Py-Py-(R)^H2^Nγ-Py-Py-Py-Py) (4) by: (i) EDTA dianhydride (DMSO/NMP, DIEA, 55° C., 15 min); (ii) 0.1 M NaOH (55° C., 10 min). […] Bar heights are proportional to the relative cleavage intensities at each base pair. Shaded and non-shaded circles denote Im and Py carboxamides, respectively. The boxed Fe denotes the EDTA•Fe(II) cleavage moiety. […]

[4] = test system: 229 base pair restriction fragment of pJT8 (5′-AGTACT-3′ and 5′-AGTATT-3′ sites); assay: MPE•Fe(II) footprinting; type: binding; details: 25 mM HEPES pH 7.3, 200 mM NaCl, 22°; for MPE•Fe(II) footprinting: binding at match site: 10 nM polyamide
Description: FIG. 5 illustrates the 229 bp restriction fragment with the relative positions of the match and single base pair mis-match sequences indicated for two 8-ring cyclic polyamides, cyclo-(γ-Im-Py-Py-Py-(R)^H2^Nγ-Im-Py-Py-Py) (3) and cyclo-(γ-Im-Py-Py-Py-(R)^H2^Nγ-Py-Py-Py-Py) (4). MPE•Fe(II) protection patterns of 10 nM cyclo-(γ-Im-Py-Py-Py-(R)^H2^Nγ-Im-Py-Py-Py) (3) and 10 nM cyclo-(γ-Im-Py-Py-Py-(R)^H2^Nγ-Py-Py-Py-Py) (4) are shown by the bar graphs. Bar heights are proportional to the relative protection from cleavage at each base pair. Binding sites determined by MPE•Fe(II) footprinting and quantitated by DNase I footprint titrations are boxed. Autoradiograms of MPE•Fe(II) footprinting experiments using cyclo-(γ-Im-Py-Py-Py-(R)^H^2^Nγ-Im-Py-Py-Py) (3) (left) and cyclo-(γ-Im-Py-Py-Py-(R)^H^2^Nγ-Py-Py-Py-Py) (4) (right) on the 3′ ^32P-labeled 229 bp restriction fragment of pJT8. 5′-AGTATT-3′ and 5′-AGTACT-3′ sites are shown adjacent to the auto radiograms. Lane 1, intact control; lane 2, MPE•Fe(II) reaction; lane 3, A reaction standard; lanes 4-8: 100 pM; 1 nM; 10 nM; 100 nM; and […] polyamide, respectively. All lanes contain 15 kcpm of either 3′ or 5′-radiolabeled DNA, 25 mM HEPES buffer (pH 7.3), 200 mM NaCl, […] glycogen, 5 mM DTT, 0.5 mM MPE•Fe(II), and were run at 22° C.
as §2, with “25:7344 (1986). […]” for “25:7344 (1986).”

[5] = test system: 5′-AGTATT-3′ site on 229 bp restriction fragment of pJT8; assay: Quantitative DNase I footprint titration, 5′-AGTATT-3′ site; type: binding; details: for equilibrium association constant Ka at 5′-AGTATT-3′: 10 mM Tris•HCl, 10 mM KCl, 10 mM MgCl2, 5 mM CaCl2, pH 7.0, 22° C., match site for (4), single base pair mis-match for (3)
Description: as §1
as §2, with “130:132 (1986), Brenowitz, et al., Proc. Natl. Acad. Sci. U.S.A., vol 83:8462 (1986), and Senear, et al., Biochemistry, vol. 25:7344 (1986).” left out

Row | increase in dsDNA binding affinity relative to unlinked, dimeric polyamide (1) ([1]; 5′-AGTACT-3′ match site) | MPE•Fe(II) footprinting: binding at match site [4] | equilibrium association constant Ka at 5′-AGTATT-3′ [5] [M⁻¹] | equilibrium association constant Ka at 5′-AGTACT-3′ [1] [M⁻¹] | Substance | specificity for match sequence versus single base pair mismatch sites [2] | MPE•Fe(II) footprinting: binding at single base pair mismatch site [4] | also measured
1 | 428 fold |  |  |  | Im-Py-Py-Py-(R)^H2Nγ-Im-Py-Py-Py-OH [polyamide 2, reference compound] |  |  | lower affinity than previously described hairpin Im-Py-Py-Py-γ-Im-Py-Py-Py-β-Dp [1]: 4 fold; lower sequence specificity than previously described hairpin Im-Py-Py-Py-γ-Im-Py-Py-Py-β-Dp [1]: 5
2 |  |  |  |  | Im-Py-Py-γ-Py-Py-Py-Dp | 20 fold |  | 
3 |  |  |  |  | cyclo-(Im-Py-Py-γ-Py-Py-Py-γ) | 4-17 fold |  | concentration at which the five base pair target 5′-TGTTA-3′ is bound [2]: subnanomolar; higher affinity relative to hairpin analog Im-Py-Py-γ-Py-Py-Py-Dp [2]: 40 fold
4 |  |  |  |  | cyclo-(γ-Im-Py-Py-Py-(R)^EDTA•Fe(II)γ-Py-Py-Py-Py-) [4-E•Fe(II)] |  |  | affinity cleavage pattern at 5′-AGTACT-3′ single base pair mis-match site [3]: minor cleavage loci located 3′ and 5′ adjacent to the single base pair mis-match 5′-AGTACT-3′ site; affinity cleavage pattern at 5′-AGTATT-3′ match site [3]: major cleavage locus proximal to the 3′ side of the 5′-AGTATT-3′ match sequence
5 | 3,600 fold | bound to its designated 6 bp match sites | 1.3e+09 | 7.6e+10 | cyclo-(γ-Im-Py-Py-Py-(R)^H2Nγ-Im-Py-Py-Py) [polyamide 3] |  | detected only at much higher polyamide concentrations | affinity enhancement relative to hairpin polyamide (2) ([1]; 5′-AGTACT-3′ match site): 8 fold; specificity for match 5′-AGTACT-3′ over single base pair mis-match 5′-AGTATT-3′ ([1]; ratio of Ka values): 55 fold
6 |  | bound to its designated 6 bp match sites | 3.1e+09 | 4.2e+08 | cyclo-(γ-Im-Py-Py-Py-(R)^H2Nγ-Py-Py-Py-Py) [polyamide 4] |  | protected its targeted match site 5′-AGTATT-3′ and the single base pair mismatch site 5′-AGTACT-3′ | preference for match 5′-AGTATT-3′ versus single base pair mis-match 5′-AGTACT-3′ ([5]; ratio of Ka values): 7 fold
